Some test systems named below: KM12; SNB-19; MDA-N; CAKI-1; M14; Malme-3M; RXF 393; UO-31; SK-MEL-28; K562; OVCAR-8; SK-OV-3; RPMI-8226; NCI-H226; SW-620; NCI-H460; CCRF-CEM; UACC-62; PC-3; SF-539.
What all share (assay): NCI tumour cell line growth inhibition, 48 h

The values that follow come from ChEMBL document CHEMBL1201862, “PubChem BioAssay data set” (2004).

The structures appear in SMILES notation.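 How tested: cells in 96-well plates exposed to compound for 48 hours at five concentrations. GI50 = concentration required for 50% inhibition of growth.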 Activity calls are given as the source filed them. Cut-off read from the data, not from the text of the source: active = GI50 up to about 1.1 µM and inactive = higher.

In the case of `CC1(C)C2CC(c3ccncc3)ON2C(C)(C)N1O` (stereo not given), the GI50 in the test with KM12, in the test with SNB-19, with MDA-N, in the test with CAKI-1, with M14 and in the test with Malme-3M was > 100 µM (inactive) each time. Further, the GI50 with RXF 393, with UO-31, with SK-MEL-28, in the test on K562, with OVCAR-8 and in the test on SK-OV-3 was > 100 µM (inactive) in each case. For the same molecule, the GI50 in the test on RPMI-8226, in the test with NCI-H226, with SW-620, with NCI-H460, in the test on CCRF-CEM and with UACC-62 was > 100 µM (inactive) throughout. The GI50 in the test on PC-3 and in the test with SF-539 was > 100 µM (inactive) throughout.
With `N=C(N)NCCCS(=O)(=O)Nc1ccc(Nc2c3ccccc3nc3cc([N+](=O)[O-])ccc23)cc1`, the GI50 in the test on KM12 was 10.2 µM (inactive); in the test on SNB-19 it was 2.9 µM (inactive); in the test with MDA-N it was 21.3 µM (inactive); with CAKI-1, 40.8 µM (inactive); in the test on M14 it was 16.4 µM (inactive); in the test with Malme-3M, 10.1 µM (inactive). Besides, the GI50 in the test on RXF 393 was 20.8 µM (inactive); in the test on UO-31, > 68.4 µM (inactive); in the test on SK-MEL-28 it was 18.1 µM (inactive); with K562, 22.3 µM (inactive); in the test on OVCAR-8 it was 20.6 µM (inactive); in the test on SK-OV-3, 17.3 µM (inactive). Besides, the GI50 in the test with RPMI-8226 was 3.8 µM (inactive); with NCI-H226, 11.7 µM (inactive); with SW-620, 14.9 µM (inactive); in the test on NCI-H460, 0.265 µM (active); in the test with CCRF-CEM, 12.6 µM (inactive); in the test with UACC-62, 12.1 µM (inactive). Besides, the GI50 in the test on PC-3 is 11.7 µM (inactive); in the test on SF-539, 20.3 µM (inactive).
For the molecule `C[C@]12CC[C@H](O)CC1=CC[C@@H]1[C@@H]2CC[C@]2(C)C(=O)/C(=C/c3ccc([N+](=O)[O-])cc3)C[C@@H]12`, the GI50 was 33.7 µM (inactive) in the test with KM12; 10.4 µM (inactive) with SNB-19; 51.5 µM (inactive) with MDA-N; 24.1 µM (inactive) in the test with CAKI-1; 26.8 µM (inactive) in the test on M14; 20.1 µM (inactive) with Malme-3M. Besides, the GI50 in the test on RXF 393 is 8.95 µM (inactive); in the test on UO-31 it was 11 µM (inactive); with SK-MEL-28, 22.1 µM (inactive); in the test with K562, 59.6 µM (inactive); in the test with OVCAR-8, 3.15 µM (inactive); with SK-OV-3, 8.93 µM (inactive). The GI50 in the test with RPMI-8226 was > 100 µM (inactive); with NCI-H226, 2.96 µM (inactive); in the test on SW-620 it was 47.4 µM (inactive); with NCI-H460, 23.8 µM (inactive); in the test with CCRF-CEM it was > 100 µM (inactive); in the test on UACC-62, 65 µM (inactive). Also, the GI50 was 10.4 µM (inactive) in the test on PC-3 and 6.92 µM (inactive) in the test with SF-539.
Take `O=c1cc(/C=C/c2ccc(O)c(O)c2)cc(/C=C/c2ccc(O)c(O)c2)o1`: the GI50 is 8.43 µM (inactive) in the test with KM12; 8.28 µM (inactive) with SNB-19; 11.6 µM (inactive) in the test with MDA-N; 10.9 µM (inactive) in the test with CAKI-1; 10.5 µM (inactive) with M14; 5.82 µM (inactive) with Malme-3M. Besides, the GI50 in the test on RXF 393 was 6.71 µM (inactive); in the test on UO-31, 4.22 µM (inactive); with SK-MEL-28, 16.4 µM (inactive); with K562 it was 2.9 µM (inactive); in the test with OVCAR-8, 18.6 µM (inactive); with SK-OV-3 it was 11.5 µM (inactive). The GI50 was 5.02 µM (inactive) in the test with RPMI-8226; 14.9 µM (inactive) in the test on NCI-H226; 13.6 µM (inactive) in the test with SW-620; 14.3 µM (inactive) in the test on NCI-H460; 7.66 µM (inactive) in the test with CCRF-CEM; 8.39 µM (inactive) in the test with UACC-62. Also, the GI50 with PC-3 is 9.16 µM (inactive); with SF-539, 8.15 µM (inactive).
Take `COc1cccc2c1C(=O)c1c(O)c3c(c(O)c1C2=O)C[C@@](O)(C(=O)CO)C[C@@H]3OC1CC(N)C(OC)C(C)O1` (stereo not given in full): the GI50 in the test with KM12 was 0.0968 µM (active); with SNB-19, 0.0452 µM (active); with MDA-N, 0.352 µM (active); in the test on CAKI-1 it was 0.054 µM (active); in the test with M14, 0.0975 µM (active); in the test on Malme-3M it was 0.0532 µM (active). Further, the GI50 with RXF 393 is 0.19 µM (active); in the test on UO-31 it was 0.437 µM (active); in the test on SK-MEL-28, 0.315 µM (active); in the test with K562, 0.0284 µM (active); in the test with OVCAR-8, 0.0289 µM (active); with SK-OV-3 it was 0.0767 µM (active). The GI50 in the test with RPMI-8226 is 0.024 µM (active); with NCI-H226 it was 0.0553 µM (active); in the test on SW-620, 0.0249 µM (active); in the test with NCI-H460, < 0.01 µM (active); in the test on CCRF-CEM it was < 0.0146 µM (active); in the test with UACC-62, 0.0461 µM (active). Moreover, the values for the GI50 in the test with PC-3 and in the test with SF-539 were 0.153 µM (active) and 0.0421 µM (active), respectively.
In the case of `CC(NC(=O)/C(C#N)=C/c1ccc2[nH]ccc2c1)c1ccccc1` (stereo not given), the GI50 is 17.3 µM (inactive) in the test on KM12; 19.6 µM (inactive) with SNB-19; 16.2 µM (inactive) with MDA-N; 29.3 µM (inactive) in the test on CAKI-1; 20.6 µM (inactive) in the test with M14; 28.2 µM (inactive) in the test on Malme-3M. Also, the GI50 in the test on RXF 393 is 19.3 µM (inactive); in the test with UO-31 it was 14.7 µM (inactive); in the test on SK-MEL-28, 19.8 µM (inactive); in the test with K562, 23.8 µM (inactive); in the test with OVCAR-8 it was 21.3 µM (inactive); in the test with SK-OV-3, 21.9 µM (inactive). Also, the GI50 was 21.6 µM (inactive) in the test with RPMI-8226; 24.1 µM (inactive) with NCI-H226; 18.3 µM (inactive) with SW-620; 18.4 µM (inactive) in the test with NCI-H460; 17.5 µM (inactive) in the test with CCRF-CEM; 15.3 µM (inactive) in the test with UACC-62. Moreover, the GI50 in the test on PC-3 was 20.3 µM (inactive); in the test with SF-539, 19.8 µM (inactive).
